Experimental data as given in article PMC12395807, “Chemoreceptor family in plant-associated bacteria responds preferentially to the plant signal molecule glycerol 3-phosphate” (Genome Biology, 2025).

How the values were obtained:
[1] = target: ligand binding domain of the chemoreceptor ECA_RS12390 (PacP-LBD, R1, WP_011094075.1) (Pectobacterium atrosepticum, UniProt Q6D464); experiment: ITC binding to PacP-LBD; details: 15 °C, Nb = no binding
Description: (§1) Plasmids for the overexpression of the different proteins were transformed into E. coli BL21(DE3). The resulting strains were grown under continuous stirring (200 rpm) at 30 °C in 2-L Erlenmeyer flasks containing 500 mL of LB medium supplemented with 50 μg/mL kanamycin. At an OD660 of 0.5, protein expression was induced by the addition of 0.1 mM isopropyl β-D-1-thiogalactopyranoside. Growth was continued at 16 °C overnight prior to cell harvesting by centrifugation at 10,000 × g for 20 min. Cell pellets were resuspended in buffer A (Additional file 2: Table S4) and subsequently broken by French press treatment at 62.5 lb/in^2. After centrifugation at 20,000 × g for 30 min, the supernatants were loaded onto 5-mL HisTrap HP columns (Amersham Biosciences) equilibrated with buffer A, and the proteins were eluted with a linear gradient of buffer B (Additional file 2: Table S4). All proteins contain a hexa-histidine tag at the N-terminal extension (Additional file 2: Table S3) and were purified at 4 °C. The purified proteins were dialyzed overnight into the corresponding analysis buffers (Additional file 2: Table S4) for immediate analysis.
(§2) All experiments were conducted on a VP microcalorimeter (Microcal, MA) at 15 °C for PacP-LBD and at 20 °C for the remaining proteins. Proteins were dialyzed into the analysis buffers specified in Additional file 2: Table S4, placed into the sample cell and titrated with aliquots of ligand solutions (1 to 10 mM) freshly prepared in dialysis buffer. The mean enthalpies measured from the injection of the ligands into the analysis buffer were subtracted from the raw titration data prior to data analysis with the MicroCal version of ORIGIN. The data were fitted with the “One binding site model” of ORIGIN.

[2] = target: LBD of chemoreceptor R3 (WP_006464688.1) (Herbaspirillum frisingense, UniProt A0ABU1PC34); experiment: ITC binding to R3-LBD; details: 20 °C, Nb = no binding
Chain of LBD of chemoreceptor R3 (WP_006464688.1) (A0ABU1PC34 entry or part of it): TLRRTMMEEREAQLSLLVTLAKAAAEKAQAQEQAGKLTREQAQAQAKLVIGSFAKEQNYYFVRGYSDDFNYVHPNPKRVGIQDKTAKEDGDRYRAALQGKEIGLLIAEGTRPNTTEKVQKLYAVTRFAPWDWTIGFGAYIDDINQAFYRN
Description: as §1, §2

[3] = target: LBD of chemoreceptor R9 (WP_189529961.1) (Paludibacterium paludis, UniProt A0A918NWY2); experiment: ITC binding to R9-LBD; details: 20 °C, Nb = no binding
Chain of LBD of chemoreceptor R9 (WP_189529961.1) (A0A918NWY2 entry or part of it): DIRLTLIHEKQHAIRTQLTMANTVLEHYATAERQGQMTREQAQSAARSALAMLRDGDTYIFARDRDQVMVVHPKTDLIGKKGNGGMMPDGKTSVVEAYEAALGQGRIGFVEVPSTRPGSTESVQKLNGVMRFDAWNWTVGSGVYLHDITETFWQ
Description: as §1, §2

[4] = test system: ECA_RS12390-LBD (PacP-LBD); experiment: Thermal shift ligand screening of PacP-LBD; type: binding, Pectobacterium atrosepticum; details: thermal shift assay, Biolog arrays PM1, PM2A, PM3B, PM4A
Description: (§3) Assays were carried out on a MyIQ2 Real-Time PCR instrument (Bio-Rad, Hercules, CA, USA). Ligand solutions were prepared by dissolving the array compounds in 50 µL of Milli-Q water, which, according to the manufacturer, corresponds to a concentration of 10–20 mM. Freshly purified proteins were dialyzed into analysis buffer (Additional file 2: Table S4). Compound arrays PM1, PM2A (carbon sources), PM3B (nitrogen sources), and PM4A (phosphorus and sulfur sources) from Biolog (https://www.biolog.com/) were used. The compositions of these arrays are provided in Additional file 2: Table S1. The experiments were conducted in 96-well plates, and each assay mixture contained 20 µL of the dialyzed protein (at 80–50 µM), 2 µL of 5 × SYPRO orange (Life Technologies, Eugene, Oregon, USA), and 2.5 µL of the resuspended array compound or the equivalent amount of buffer in the ligand-free control. The samples were heated from 23 to 85 °C at a scan rate of 1 °C/min. The protein unfolding curves were monitored by detecting changes in SYPRO® Orange fluorescence. The Tm values were determined from the first derivative values of the raw fluorescence data.

[5] = test system: P. atrosepticum SCRI1043; experiment: Quantitative capillary chemotaxis assay, wild type; type: cell-based, Pectobacterium atrosepticum; details: wild type SCRI1043, 1 mM ligand, 30 min
Description: Overnight cultures of P. atrosepticum SCRI1043 were grown at 30 °C in minimal medium. At an OD660 of 0.4–0.45, the cultures were washed twice with chemotaxis buffer (50 mM K2HPO4/KH2PO4, 20 μM EDTA, 0.05% (v/v) glycerol, pH 7.0) and diluted to an OD660 of 0.1 in the same buffer. Subsequently, 230 μL of the resulting bacterial suspension was placed into the wells of 96-well plates. One-microliter capillary tubes (P1424, Microcaps; Drummond Scientific) were heat-sealed at one end and filled with either chemotaxis buffer (negative control) or chemotaxis buffer containing PacP ligands at a concentration of 1 mM. The capillaries were immersed in the bacterial suspensions at their open ends. After 30 min at room temperature, the capillaries were removed from the bacterial suspensions, rinsed with sterile water, and the contents were expelled into 1 mL of 40 mM K2HPO4, 15 mM KH2PO4. Serial dilutions were plated onto minimal medium supplemented with 15 mM glucose as the carbon source. The number of colony-forming units was determined after 36 h of incubation at 30 °C. In all the cases, the data were corrected with the number of cells that swam into the buffer-containing capillaries.

[6] = test system: Pectobacterium atrosepticum SCRI1043; experiment: Growth experiment, sole phosphorus source; type: cell-based; details: PFM9 minimal medium, 5 mM ligand, 30 °C, 48 h
Description: P. atrosepticum SCRI1043 was cultured overnight in phosphate-free M9-based medium (PFM9) supplemented with 20 mM glucose as the carbon source and 500 µM inorganic phosphate as the phosphate source. Cultures were washed and then diluted to an OD600 of 0.02 in PFM9 supplemented with different PacP ligands as the sole carbon or phosphorous source at a final concentration of 5 mM. Subsequently, 200 µL aliquots of these cultures were transferred into microwell plates, which were subsequently grown at 30 °C on a Bioscreen microbiological growth analyzer (Oy Growth Curves Ab Ltd., Helsinki, Finland) for 48 h.

[7] = test system: PacP-LBD mutant (Y86, H100, R105, Y121, K148 and Y167 replaced by alanine); experiment: ITC binding to PacP-LBD binding site motif mutant; parameters: species or system Pectobacterium atrosepticum; details: 36 μM PacP-LBD alanine mutant; 1 mM glycerol 3-phosphate, 2.5 mM glyceraldehyde 3-phosphate
Description: as §1, with “The purified proteins were dialyzed overnight into the corresponding analysis buffers (Additional file 2: Table S4) for immediate analysis.” left out
All experiments were conducted on a VP microcalorimeter (Microcal, MA) at 15 °C for PacP-LBD and at 20 °C for the remaining proteins. […] The mean enthalpies measured from the injection of the ligands into the analysis buffer were subtracted from the raw titration data prior to data analysis with the MicroCal version of ORIGIN. […]

[8] = test system: R4 LBD (WP_158281851.1); experiment: Thermal shift ligand screening of R4; type: binding, Rivicola pingtungensis; details: thermal shift assay, R4, arrays PM1, PM2A, PM3B, PM4A
Description: as §3

Chain of ligand binding domain of the chemoreceptor ECA_RS12390 (PacP-LBD, R1, WP_011094075.1) (Q6D464 entry or part of it): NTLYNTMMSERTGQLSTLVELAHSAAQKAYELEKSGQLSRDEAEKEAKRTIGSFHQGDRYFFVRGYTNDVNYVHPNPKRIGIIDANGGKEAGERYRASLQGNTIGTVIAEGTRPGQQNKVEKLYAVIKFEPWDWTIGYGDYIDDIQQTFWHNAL

Row | Compound | Kd [1] | KD [2] | KD [3] | Tm change with respect to the ligand-free protein [4] | chemotaxis (capillary assay) [5] | growth as sole phosphorus source [6] | Kd [2] | binding in microcalorimetric titration [7] | Tm change [8] | chemotaxis (capillary assay) ([5]; listed as Glycerol 3-phosphate)
1 | O=C(O)[C@@H](O)COP(=O)(O)O [3-phosphoglycerate] | 88 ± 5 µM | Nb | Nb | significant increases in Tm | significantly greater | permitted growth | – | – | – | –
2 | O=P(O)(O)OCC(O)CO (stereo not shown) [glycerol 3-phosphate] | 3 ± 0.2 µM | bound | Nb | significant increases in Tm | significantly greater | supported growth | 33 ± 1 µM | absence of binding | significant increases in the Tm | strongest chemotaxis
